Read-outs that look alike come from different tables or passages of the source.
What was measured:
herpes simplex [1] = details: prior art compound; cited from earlier work
herpes simplex [2] = assay: Activity against herpes simplex (general statement); set-up: species or system herpes simplex virus
herpes simplex virus = assay: Anti-HSV activity, plaque reduction assay; format: cell-based
Protocol: The inhibiting effect of the compounds of Example 1 and 2 against herpes simplex virus were determined by the plaque reduction assay.

dogs = assay: Toxicity in dogs, intravenous route; format: in vivo, dog; details: 60 mg/kg/day
Protocol: The toxicity of the compound of Example 2 was determined by administering the compound to dogs at a dosage of 60 mg/kg/day, by the intravenous route.

EBV [3] = assay: Anti-EBV activity (method described by Nonogama l. Pagano, 1971); format: cell-based, Epstein-Barr virus; details: human gammaherpesvirus 4
Protocol: The inhibitory effect of the compound of Example 2 against EBV was determined by the method described by Nonogama l. Pagano, 1971, Nature: New Biology, Vol. 233, 103-104.

EBV [4] = assay: Activity against EBV infections (general statement); set-up: species or system Epstein-Barr virus
CMV = assay: Activity against CMV infections (general statement); set-up: species or system cytomegalovirus

SMILES	activity against herpes simplex (herpes simplex [1])	activity against herpes simplex (herpes simplex [2])	IC50 (herpes simplex virus) [µM]	toxic effects (dogs)	IC50 (EBV [3]) [µM]	activity against EBV infections (EBV [4])	activity against CMV infections (CMV)
Nc1nc2c(ncn2COCCO)c(=O)[nH]1 [acyclovir, 9-(2-hydroxyethoxymethyl)guanine]	particularly good activity	–	–	–	–	–	–
Nc1nc2c(nc(N)n2COC(CO)CO)c(=O)[nH]1 [Example 1, 8-Amino-9-[(2-hydroxy-1-hydroxymethylethoxy)methyl]guanine]	–	particularly high activity	0.5	–	–	–	–
Nc1nc2c(nnn2COC(CO)CO)c(=O)[nH]1 [Example 2, 5-Amino-3,6-dihydro-3-[(2-hydroxy-1-hydroxymethylethoxy)methyl]-7H-1,2,3-triazolo[4,5-d]pyrimidin-7-one]	–	–	27.4	No toxic effects were noted	1 to 10	especially potent activity	especially potent activity

— US4714701A, “Antiviral compounds” (Burroughs Wellcome Co., priority 1985, dated 1987)
